# Results as given in patent US20110190137A1, “METHOD TO INHIBIT ETHYLENE RESPONSES IN PLANTS” (priority 2003, published 2011).
# Experiments:
# [1] = test system: ethylene-induced epinasty in Patio variety tomato plants; assay: Tomato epinasty test, volatile gas treatment; type: in vivo; conditions: for Gas @ 10 ppm: visual rating of protection against ethylene-induced epinasty: gas 10 ppm v/v, 10 ppm ethylene, scale 0 to 10 (10 = complete protection); for Gas @ 1000 ppm: visual rating of protection against ethylene-induced epinasty: gas 1000 ppm v/v, 10 ppm ethylene after 4 h, scored 16 h later, scale 0 (no protection) to 10 (complete protection); for Gas @ 343.4 ppm: rating of protection against epinasty: gas 343.4 ppm (in cell)
# Method: (§1) Objective: The test procedure is designed to determine the ability of an experimental compound to block the epinastic growth response induced by ethylene in tomato plants when the experimental compound is administered either as a volatile gas or as a component of a spray solution.
# (§2) Treatment chambers are of an appropriate size for the test plants and are airtight. Each is fitted with a reusable septum to be used for injection of ethylene. Test plants are Patio variety tomato seedlings planted two plants per three inch square plastic pot.
# Volatile gas treatment entails placing two pots of Patio var. tomatoes into a polystyrene 4.8 L volume treatment chamber along with one-half (upper or lower section) of a 50×9 mm plastic Petri dish containing a Gelman filter pad. The appropriate amount of experimental compound, dissolved in 1.0 ml acetone, is pipetted onto the filter pad and the chamber immediately sealed. Four hours later ethylene gas equal to 10 ppm v/v final concentration is injected into the sealed chamber. Sixteen hours later the chambers are opened in an exhaust hood, allowed to air and the plants scored visually for the degree of protection against ethylene-induced epinasty conferred by the experimental compound when compared to ethylene treated and untreated controls on a scale of 0 to 10. A rating of 10 means complete protection. A rating of 0 means no protection from the effects of ethylene. Gas treatment concentrations are volume/volume.
# [2] = test system: ethylene-induced epinasty in Patio variety tomato plants; assay: Tomato epinasty test, spray application treatment; type: in vivo; conditions: for Spray @10 ppm: visual rating of protection against ethylene-induced epinasty: spray 10 ppm in 10% acetone/90% water, 0.05% Silwett L-77, 10 ppm ethylene, scale 0 to 10 (10 = complete protection); for Spray @ 1000 ppm: rating of protection against epinasty: spray 1000 ppm (in cell), scale 0 to 10
# Method: as §1, §2
# Spray application treatment entails using a DeVilbiss atomizer to completely cover all foliage and stems of two pots of Patio var. tomato plants with the appropriate amount of experimental compound dissolved in 10% acetone/90% water with 0.05% Silwett L-77 surfactant. Plants are air-dried in a drying hood for four hours then transferred to a 4.8 L polystyrene chamber which is sealed.
# Ethylene gas equal to 10 ppm v/v final concentration is injected into the sealed chamber. Sixteen hours later the chambers are opened in an exhaust hood, allowed to air and the plants scored visually for the degree of protection against ethylene-induced epinasty conferred by the experimental compound when compared to ethylene treated and untreated controls on a scale of 0 to 10. A rating of 10 means complete protection. A rating of 0 means no protection from the effects of ethylene.
SMILES,Gas @ 10 ppm: visual rating of protection against ethylene-induced epinasty [1],Gas @ 500 ppm: rating of protection against epinasty ([1]; scale 0 to 10),Gas @ 1000 ppm: visual rating of protection against ethylene-induced epinasty [1],Spray @10 ppm: visual rating of protection against ethylene-induced epinasty [2],Spray @ 1000 ppm: rating of protection against epinasty [2],Gas @ 343.4 ppm: rating of protection against epinasty ([1]; scale 0 to 10),"Gas @ 509 ppm: rating of protection against epinasty ([1]; gas 509 ppm (in cell), scale 0 to 10)"
"CCCCCCCCC1=CC1C(=O)O (centres unmarked) [Compound 78, 1-Octyl-3-carboxy-cyclopropene]",0,10,5,0,,,
C1=C(Cc2ccccc2)C1 [Compound 17],9,,,2,,,
"CCC1=C(n2nc(-c3ccc(Cl)cc3)ccc2=O)C1 [Compound 60, 1-Ethyl-2-(3-(4-chlorophenol)-pyridaz-6-on-1-yl)-cyclopropene]",4,,0,0,,,
"C[Si](C)(C)CCC1C=C1 [Compound 66, 2-(Trimethylsilyl)-ethylcycloprop-2-ene]",10,,,10,,,
"BrC1=C(Cc2ccccc2)C1 [Compound 45, 1-Benzyl-2-bromocyclopropene]",5,,10,0,,,
"C1=C(CCCCCCCN(c2ccccc2)c2ccccc2)C1 [Compound 13, 7-(diphenylamino)-1-heptylcyclopropene]",0,,,10,,,
"CCSCCCCCCCC1=CC1 [Compound 70, 1-(7-Ethanethioheptyl)-cyclopropene]",2,,,10,,,
"Cc1ccc(SCCCCCCCCC2=CC2)cc1 [Compound 57, 1-(4-Methylphenylthiooctyl)-cyclopropene]",0,,10,2,,,
Cc1ccc(CC2=CC2)cc1 [Compound 24],10,,,10,,,
"CS(=O)(=O)Oc1ccc(C(=O)OCCCCCCCC2=CC2)cc1 [Compound 53, 1-(7-(4-Methanesulfonyloxyphenyl)-carbonyloxyheptyl)-cyclopropene]",0,,10,0,,,
"CC[Si](CC)(CC)CC1=CC1 [Compound 63, 1-Triethylsilylmethylcyclopropene]",10,,,10,,,
Cc1cc(C)c(CC2=CC2)c(C)c1 [Compound 30],3,,8,0,,,
Clc1ccc(CCC2=CC2)cc1 [Compound 28],9.5,,,8,,,
COc1ccc(OCC2(C)C=C2)cc1 [Compound 16],3.75,10^c^,,4.5,,,
"Clc1ccc(CC2=CC2)cc1 [Compound 1, 1-Chloro-4-cycloprop-1-enylmethyl-benzene]",10,,,10,,,
CC1(CCc2ccccc2)C=C1 [Compound 19],2,,7.5,2,,,
"CCCCCC1(C)C=C1 [Compound 72, 3-Methyl-3-pentyl-cyclopropene]",0,,9,2,,,
C1=C(CC2CCCCCC2)C1 [Compound 22],9,,,10,,,

SMILES,Gas @ 10 ppm: visual rating of protection against ethylene-induced epinasty [1],Gas @ 500 ppm: rating of protection against epinasty ([1]; scale 0 to 10),Gas @ 1000 ppm: visual rating of protection against ethylene-induced epinasty [1],Spray @10 ppm: visual rating of protection against ethylene-induced epinasty [2],Spray @ 1000 ppm: rating of protection against epinasty [2],Gas @ 343.4 ppm: rating of protection against epinasty ([1]; scale 0 to 10),"Gas @ 509 ppm: rating of protection against epinasty ([1]; gas 509 ppm (in cell), scale 0 to 10)"
CC(C)(C)OC(=O)N1CC(C(=O)OCCC2=CC2)CS1 (centres unmarked) [Compound 52],0,,3,2,10,,
Cc1cc(C)nc(CCC2=CC2)n1 [Compound 42],,,,2,,3(@ 343.4,
"CCCCCCCCC1=C(Br)C1 [Compound 71, 1-Bromo-2-octyl-cyclopropene]",1,,10,3,,,
"CS(=O)(=O)OCCC1=CC1 [Compound 68, 1-(2-Methanesulfonyloxyethyl)-cyclopropene]",3,,10,5,,,
O=C(O)CCC1=C(Br)C1 [Compound 77],8,,,2,,,
C1=C(CCc2ccccc2)C1 [Compound 18],10,,,6,,,
"C1=C(CCCC2OCCCO2)C1 [Compound 3, 2-(3-Cycloprop-1-enyl-propyl)-[1,3]dioxane]",8,,,0,,,
"CCCCCCCC1=C(C)C1 [Compound 74, 1-Heptyl-2-methyl-cyclopropene]",0,,10,0,,,
"ClC1=C(c2ccccc2)C1(Cl)Cl [Compound 41, 1-Phenyl-2,3,3-trichlorocyclopropene]",0,,2,0,,,
O=C(OCCC1=CC1)c1ccc(-n2cccc2)cc1 [Compound 62],0,,,0,,,10(@509
O=C(OCCCCCCCC1=CC1)C1CCCO1 (centres unmarked) [Compound 54],0,,2,0,,,
C1=C(CCSc2ccccn2)C1 [Compound 35],10,,,9,,,
"CC[Si](CC)(CC)C1=C(C)C1 [Compound 81, 1-Triethylsilyl-2-methylcyclopropene]",0,,10,0,,,
"CCCCCCCCCC1(C)C=C1 [Compound 73, 3-Methyl-3-nonyl-cyclopropene]",0,,8,0,,,
O=C(OCCC1=CC1)c1cc2ccccc2o1 [Compound 49],0,,,0,,9(@343.4,
CC(=O)OCOC(=O)CCC1=C(Br)C1 [Compound 75],10,,,0,,,
Cc1nnsc1C(=O)OCCC1=CC1 [Compound 51],0,,3,0,8,,
"C[Si](C)(C)CCCCCCC1C=C1 [Compound 65, 6-(Trimethylsilyl)-hexylcycloprop-2-ene]",10,,,6,,,
